Earlier results on one molecule are cited in patent US20030232417A1, “Process” (priority 2001, published 2003).

This series has as its system fungi. Conditions: limited number of fungi tested.

In the case of `O=C1C=CCOC1(O)CO` (stereo not shown) [microthecin, 2-hydroxy-2-(hydroxymethyl)-2H-pyran-3(6H)-one], the antifungal activity result is given as “antifungal against a limited number of fungi tested”.
